Experimental data reported in patent US8628864B2, “Indolo[3,2,1-jk]carbazole compound and organic light-emitting device containing the same” (Canon Kabushiki Kaisha, priority 2010, dated 2014).

Assays:
Type in all cases: physicochemical
[1] = Ionization potential of evaporated thin film, photoelectron spectrometer AC-3
Procedure: The ionization potential of the evaporated thin film used in the measurement of the energy gap described above was measured with a photoelectron spectrometer AC-3 (manufactured by Riken Keiki Co., Ltd.). The ionization potential of the exemplary compound C-1 was 6.01 eV.

[2] = Solubility: amount of chlorobenzene required to dissolve 10 mg of compound; details: 10 mg compound
Procedure: The amount of chlorobenzene required to dissolve 10 mg of the exemplary compound C-1 was determined. As a result, the amount of chlorobenzene required to dissolve 10 mg of the exemplary compound C-1 was 1 ml or less.

[3] = Color of evaporated film on glass substrate left to stand in the air; details: in the air at room temperature, approximately two hours

Which Ionization potential [1] does the source give for c1ccc2c(c1)c1cc(-c3cc(-c4cc5c6ccccc6n6c7ccccc7c(c4)c56)cc(-c4cc5c6ccccc6n6c7ccccc7c(c4)c56)c3)cc3c4ccccc4n2c13 [FH-01] here?
The Ionization potential was 5.83 eV.

And the “Amount of chlorobenzene required to dissolve 10 mg of compound” value [2]?
The value was 50 or more ml.

And the “Color of film 2 h after film formation” value [3]?
Its value is “pale yellowish brown”.

Which Ionization potential [1] does the source give for c1ccc2c(c1)c1cc(-c3ccc(-c4cc5c6ccccc6n6c7ccccc7c(c4)c56)cc3)cc3c4ccccc4n2c13 [FH-02] here?
The Ionization potential was 5.72 eV.

What about the “Amount of chlorobenzene required to dissolve 10 mg of compound” value [2] of the same molecule?
The value was 10 mL.

What about the “Color of film 2 h after film formation” value [3] of the same molecule?
Its value is “pale yellowish brown”.
